# Assay results as given in PMC3664642, “A Peptide against Soluble Guanylyl Cyclase α1: A New Approach to Treating Prostate Cancer” (PLoS ONE, 2013).
# Entries after “also recorded” stand apart in the source; their conditions may differ. Where no end group is shown, it is not given here.
# Legend:
# [1] = test system: C81 cells; test: Proliferation/cytotoxicity, castration-resistant C81 cells (MTT); assay type: cell-based; details: different concentrations; Fig. 3C; averages of three independent experiments; P<0.03 vs Vehicle
# Procedure: (§1) LNCaP, C81, PC-3 and Cos cells were grown as previously described. CWR-22Rv1 cells were cultured in RMPI-1640 medium with 10% FBS and 50 µg/ml Gentamicin (Gibco). Control siRNA, sGCα1 siRNA and AKT siRNA (Dharmacon) at 50 nM final concentration was transfected into cells using Lipofectamine siMAX (Invitrogen).
# (§2) For proliferation, cells were grown in medium containing 2% FBS extracted with dextran-coated charcoal (DCC). 48 hours later, ethanol or 1 nM R1881 was added to the cells followed by peptide treatment. The MTT assay (Sigma) was used as before to determine cell number. For apoptosis, 5000 cells were seeded in 96-well plates and treated with Vehicle (DMSO), Peptide A-8R (25 µM), Etoposide (50 µM) (Sigma) at different time points. The Caspase (3/7) activity was measured using Apo-ONE Homogeneous Caspase-3/7 assay kit (Promega). PARP cleavage was also used to measure apoptosis, and is described below.
# (§3) Vehicle or different concentrations of Peptide A-8R or C-8R, as shown, was added to (A) hormone-dependent LNCaP cells grown in 2% serum without or with 1 nM R1881, (C) castration-resistant C81 or CWR-22Rv1 cells, or (E) sGCα1-deficient PC-3 or Cos cells. Cell number was measured after various days of incubation. Data points represent averages of three independent experiments plus standard deviations. […]
# [2] = test system: Cos cells; test: Proliferation/cytotoxicity, sGCα1-deficient Cos cells (MTT); assay type: cell-based, African green monkey; details: different concentrations, Fig. 3E
# Procedure: as §1, §2, §3
# [3] = test system: ROS generation in PC-3 cells; test: ROS generation, PC-3 cells; assay type: cell-based; details: 0–30 min; Fig. S5A
# Procedure: (§4) Intracellular ROS levels were evaluated using the fluorescent probe 5-(and-6)-chloromethyl-2′,7′-dichlorodihydrofluorescein diacetate (CM-H2DCFDA) (Invitrogen). After treatments with Peptide A-8R, C81 cells were loaded with 20 µM CM-H2DCFDA and incubated at 37°C for 30 min in the dark. Cells were then washed with PBS and fluorescence was measured at the excitation and emission wavelengths of 490 and 535 nm, respectively, using a multi-well fluorescence plate reader. For NAC (N-acetyl cysteine) (Sigma) rescue experiment, cells were pretreated with 1 or 5 mM NAC for 2 hours before adding Peptide A-8R.
# Supplementary file pone.0064189.s005.tif: Figure S5 ROS generation is not induced by Peptide A-8R in PC-3 cells and Peptide C-8R in LNCaP cells. (A) PC-3 cells were treated with Vehicle or different concentrations of Peptide A-8R or Peptide C-8R, as shown, or (B) LNCaP cells were treated with Vehicle or different concentrations of Peptide A-8R or Peptide C-8R, or H2O2 and monitored for ROS generation after 0–30 (A) or 30 (B) min. (C) LNCaP cells were treated with Vehicle, Peptide C-8R (10 µM), Peptide A-8R (10 µM), or Etoposide (100 µM) for 0–8 hrs and subjected to a Caspase assay to measure apoptosis. Bar graphs represent averages of three independent experiments plus standard deviations. (C) All activities are relative to the first condition, and this activity was set to either 1. […]
# [4] = test system: C81 cells; test: NAC rescue of proliferation of Peptide A-8R-treated cells (MTT); assay type: cell-based; details: 50 µM vs 10 and 25 µM
# Procedure: as §2, §4
# Figure 4 Peptide A-8R kills prostate cancer cells by mediating ROS generation. (A) C81 cells were treated with Vehicle or different µMolar concentrations of Peptide A-8R and without or with 0–5 mM NAC and monitored for ROS generation after 0–30 min as measured by fluorescence intensity (FI). Bar graphs represent averages of three independent experiments plus standard deviations. Note that asterisks on bar graphs found with NAC are compared to equivalent data without NAC. (B) C81 cells were treated with Vehicle or different concentrations of Peptide A-8R, as shown, and 0–5 mM NAC, as shown, and monitored for cell number after 0–6 days of incubation as measured by MTT assay. Data points represent averages of three independent experiments plus standard deviations. Asterisks indicate statistical significance (P<0.04). (C) C81 cells were treated with Vehicle or different concentrations of Peptide A-8R, as shown, and with or without 5 mM NAC, as shown, and monitored DNA damage after 1 hr incubation as measured by Comet assay.
# [5] = test system: Caspase 3/7 activity in PC-3 cells; test: Caspase 3/7 assay, PC-3 cells; assay type: cell-based; details: 10 µM; 0–24 hrs; Fig. 5B
# Procedure: as §2
# Figure 5 Peptide A-8R induces apoptosis of prostate cancer cells. (A) LNCaP, (B) PC-3, or (C) Cos cells were treated with Vehicle, Peptide A-8R (10 µM), or Etoposide (20 µM) for 0–24 hrs and subjected to a Caspase assay to measure apoptosis. Bar graphs represent averages of three independent experiments plus standard deviations. All activities are relative to the first condition, and this activity was set to 1. Asterisks indicate statistical significance (P<0.005). (D) LNCaP cells were treated with Vehicle, Peptide C-8R, Peptide A-8R, or Etoposide (each drug at 50 µM) for 8 hrs and monitored for apoptosis by measuring PARP cleavage using Western blotting. Note that β-actin was used to control for protein loading.
# [6] = test system: LNCaP cells; test: AKT over-expression (adenovirus) rescue of Peptide A-8R-treated cells; assay type: cell-based; details: 10- 50 µM Peptide A-8R; 10% serum; 0–6 days; Fig. S4D
# [7] = test system: prostate cancer cells; test: Cytotoxicity against prostate cancer cells (summary); assay type: cell-based; details: hormone-dependent and hormone-refractory prostate cancer cells
# Procedure: as §2
substance,measurement,setting,value
Ac-TFCKAFPFHIIRRRRRRRR [Peptide A-8R],suppression of growth of C81 cells,[1],"very effective at suppressing the growth of C81 cells (Fig. 3C), matching the effect on hormone-dependent LNCaP cells"
same,effect on Cos cells,[2],little to no effect
same,"ROS generation, PC-3 cells",[3],do not respond; also recorded: not induced
same,cytotoxicity at 50 µM relative to lower concentrations,[4],strongest cytotoxic activity
same,"induction of apoptosis, PC-3",[5],failed to induce apoptosis
same,rescue by adenovirus-expressed AKT,[6],unable to rescue
same,cytotoxic activity against prostate cancer cells (summary),[7],"strongly cytotoxic to prostate cancer cells, rapidly inducing apoptosis; also recorded: strongly cytotoxic to sGCα1-expressing prostate cancer cells, but not to sGCα1-deficient cells; also recorded: showed the strongest activity"
